Data from US6892140B1, “Immunogenic cancer peptides and uses thereof” (Enteron, Inc., priority 2000, dated 2005).
“Also recorded” adds a separate entry of the source. Ends that are not written are not given here.

Each substance was assayed on antibodies in sera from prostate cancer patients (assay: Prostate cancer serum test of cell surface protein peptides (Table 3)). Settings: reactivity of peptide with antibodies in sera from prostate cancer patients.
Format: binding, human
Design: key: +: positive or negative reactivity between peptides representing modified peptide regions of cancer cell surface protein molecules with antibodies in sera from prostate cancer patients; −: positive or negative reactivity between peptides representing modified peptide regions of cancer cell surface protein molecules with antibodies in sera from prostate cancer patients
Excerpt: Table 3 third column illustrates the positive or negative reactivity between peptides representing modified peptide regions of cancer cell surface protein molecules with antibodies in sera from prostate cancer patients. The presence or absence in prostate cancer cells of the 41 tested molecules is shown as + or − in column four.
Sixth, employing the immunoassays disclosed herein, each biotinylated peptide is screened as an antigen against sera or other relevant biological fluids containing antibodies taken from one of the following groups: cancer patients, patients with benign lesions or inflammatory conditions, and healthy subjects. Peptides can also be screened using tumor-infiltrating lymphocytes or peripheral blood-born lymphocytes from cancer patients. Candidate peptides we consider cancer-specific or cancer-associated depend on whether they fit the following definitions.

Row | Substance | Prostate Cancer Serum Test Result
1 | nnNNss: Tested peptide of cell surface protein CD9 (NNNNSS; also: biotin label at one end) | −
2 | pdNqt: Tested peptide of cell surface protein integrin beta 5 (PDNQT; also: biotin label at one end) | −
3 | keNdt: Tested peptide of cell surface protein protein-tyrosine phosphatase kappa (KENDT; also: biotin label at one end) | −
4 | saNrs: Tested peptide of cell surface protein CD66 (SANRS; not fully specified) | +
5 | dkNst: Tested peptide of cell surface protein CD38 (DKNST; not fully specified) | −
6 | drNht: Tested peptide of cell surface protein CD46 (DRNHT; not fully specified) | −
7 | nkNvt: Tested peptide of cell surface protein integrin beta I (NKNVT; also: biotin label at one end) | +
8 | rcNgs: Tested peptide of cell surface protein integrin beta 5 (RCNGS; not fully specified) | −

These substances were tested on serum IgG antibodies from patients with squamous cell carcinoma and from controls (assay: Immunoassay 2: serum IgG specific for biotinylated peptide antigens, squamous cell carcinoma patients vs persons not known to have cancer). Settings: 45 squamous cell carcinoma sera.
Format: binding, human
Experimental: Using immunoassay 2 (see Materials and Methods) the following results were obtained.
Immunoassay Method 2: Used to Detect Serum IgA, IgD, IgE, IgG, and IgM Antibodies Specific for Individual Peptide Antigens
NeutrAvidin^a conjugated paper disc, 6 mm.
Serum diluent: 10 mM sodium phosphate, pH 7.20, with 150 MM sodium chloride, and 0.20 mg/mL sodium azide.
NeutrAvidin^a coated white microtiter plate, stored in 10 mM Tris-HCl, pH 7.50, containing 600 mM sodium chloride and 0.2 mg/mL thimerosal.
Plate blocking solution: 10 mM sodium phosphate, pH 7.20, containing 150 mM sodium chloride, 100 mg/mL Triton X-405, and 0.2 mg/mL thimerosal.
Plate wash buffer: 20 mM Tris chloride, pH 7.4, containing 150 mM sodium chloride, 0.5 mg/mL Triton X-405 and 0.2 mg/mL thimerosal.
(§1) Peptide solution: 0.06 μg/mL peptide dissolved in 20 mM Tris chloride, pH 7.4, containing 600 mM sodium chloride, 30 mg/mL polyethylene glycol 4000, 1 mM ethylenediaminetetraacetic acid, 1 mM ethylene glycol-bis(§-aminoethyl ether)N,N,N′,N′-tetraacetic acid, 0.5 mg/mL Triton X405 and 0.2 mg/mL thimerosal.
as §1, with “Control peptide” for “Peptide”, “0.013” for “0.06”, “μg/mL control” for “μg/mL”, “X-405” for “X405”
Conjugate solution: 0.100 μg/mL alkaline phosphatase conjugated polyclonal goat anti human IgG dissolved in 20 mM Tris-HCl, pH 7.40, with 600 mM sodium chloride, 30.0 mg/mL PEG-4000, 3.0 mg/mL BSA, 0.5 mg/mL Triton X-405 and 0.20 mg/mL thimerosal.
Substrate solution: 25.2 μg/mL 4-methylumbelliferyl phosphate dissolved in 180 mM 2-amino-2-methyl-1-propanol, pH 9.50, containing 123 μM magnesium chloride.
Serum preparation: • 1. Add 100 μL serum to 15 NeutrAvidin^a coated paper discs in a suitably sized test tube. • 2. Incubate with gentle mixing at ambient temperature for 16-20 hours. • 3. Add 7.900 mL of serum diluent and mix gently for 30 minutes. • 4. Vortex the tube gently to completely release the serum from the discs. • 5. Remove the treated serum from the discs and transfer it to a suitable storage tube. • 6. Store the treated serum at 4 EC.
Assay procedure: • 1. Two days before assay, aspirate the storage solution from the NeutrAvidin^a coated white microtiter plate and add 200 μL plate blocking solution to each well. • 2. Cover the plate and incubate at ambient temperature for 16-20 hours. • 3. One day before assay. wash the blocked plate three times with plate wash buffer, approximately 275 μL per well per wash. […] Read the plate at 30 and 60 minutes in a fluorescence microtiter plate reader set at 365 nm excitation and 450 nm emission. […]

Row | Substance | sera from squamous cell carcinoma patients with IgG antibody level above control mean background+2.5 SD
9 | aemNgSk: TROP1 peptide with the amino acid sequence aemNgSk (AEMNGSK; not fully specified) | 6 of 45
10 | rNvs: EGFR peptide (portion of SEQ ID NO: 67), deglycosylated asparagine N (RNVS; also: deglycosylated asparagine) | 2 of 45

Same assay, conditions: control population

Row | Substance | sera from persons not known to have cancer: IgG antibody level relative to control mean background+2.5 SD
11 | aemNgSk: TROP1 peptide with the amino acid sequence aemNgSk (AEMNGSK; not fully specified) | one
12 | rNvs: EGFR peptide (portion of SEQ ID NO: 67), deglycosylated asparagine N (RNVS; also: deglycosylated asparagine) | below the mean background+2.5 standard deviations; also recorded: below the mean background plus 4 standard deviations
